Results on 19 compounds are retold here after ChEMBL document CHEMBL2363022, “Malaria Box Schistosomiasis Screening Data” (2013).

Common to all, as to format: functional
The subject of assay [1] is Schistosoma mansoni. Further details: scale not given here.
Assay [2] concerns Schistosoma mansoni. Further details: scale not given here. The source holds these as a separate data set.
The test system of assay [3] is Schistosoma mansoni. Further details: scale not given here. The source holds these as a separate data set.
Assay [4] has as its system Schistosoma mansoni. As to the kind of experiment: MMV: Toxicity @ 5 uM to 4-5 Schistosoma mansoni adult males after 24 h on a scale of 0 (none) - 4 (most). Includes short descriptors of effects as judged visually (PMID:19597541). Only those Malaria box 'drug-like' cpds yielding the most severe phenotypes vs. somules were tested. Caffrey group UCSF.
Assay [5] concerns Schistosoma mansoni. Put plainly: MMV: Toxicity @ 5 uM to 4-5 Schistosoma mansoni adult males after 48 h on a scale of 0 (none) - 4 (most). Includes short descriptors of effects as judged visually (PMID:19597541). Only those Malaria box 'drug-like' cpds yielding the most severe phenotypes vs. somules were tested. Caffrey group UCSF.
Assay [6] deals with Schistosoma mansoni. Put plainly: MMV: Toxicity @ 5 uM to 4-5 Schistosoma mansoni adult males after 72 h on a scale of 0 (none) - 4 (most). Includes short descriptors of effects as judged visually (PMID:19597541). Only those Malaria box 'drug-like' cpds yielding the most severe phenotypes vs. somules were tested. Caffrey group UCSF.
The subject of assay [7] is Schistosoma mansoni. As to the kind of experiment: MMV: Motility assay. Percent change (relative to DMSO controls) @ 5 uM of movement of 4-5 Schistosoma mansoni adult males after 24 h as measured by the Consensus Voting Luminance Difference algorithm available on WormAssay (PMID:22303493). Occasional incongruence ocurrs between the motility scores and the visually adjudicated 'toxicity scores'. In these cases the 'toxicity score' should be prioritized. Only those Malaria box 'Drug-like' cpds yielding the most severe phenotypes vs. somules were tested. Caffrey group UCSF.

Assay [8] deals with Schistosoma mansoni. As to the kind of experiment: MMV: Motility assay. Percent change (relative to DMSO controls) @ 5 uM of movement of 4-5 Schistosoma mansoni adult males after 48 h as measured by the Consensus Voting Luminance Difference algorithm available on WormAssay (PMID:22303493). Occasional incongruence ocurrs between the motility scores and the visually adjudicated 'toxicity scores'. In these cases the 'toxicity score' should be prioritized. Only those Malaria box 'Drug-like' cpds yielding the most severe phenotypes vs. somules were tested. Caffrey group UCSF.

The subject of assay [9] is Schistosoma mansoni. As to the kind of experiment: MMV: Motility assay. Percent change (relative to DMSO controls) @ 5 uM of movement of 4-5 Schistosoma mansoni adult males after 72 h as measured by the Consensus Voting Luminance Difference algorithm available on WormAssay (PMID:22303493). Occasional incongruence ocurrs between the motility scores and the visually adjudicated 'toxicity scores'. In these cases the 'toxicity score' should be prioritized. Only those Malaria box 'Drug-like' cpds yielding the most severe phenotypes vs. somules were tested. Caffrey group UCSF.

Take `COCCNCC(O)Cn1c2ccc(Cl)cc2c2cc(Cl)ccc21` (stereo unspecified): the Toxicity came out at 4 in assay [1]; 4 in [2]; 4 in [3]; 0 in assay [4]; 0 in assay [5]; 0 in assay [6]. Also, the Motility in [7] is 94; in assay [8], 94; in assay [9] it was “No effect”.
`CC(C)=CCN1CCC(C(=O)Nc2ccc(-c3nc4ccccc4[nH]3)cc2)CC1`: the Toxicity in [1] came to 1; in assay [2] it was 1; in assay [3], 1; in assay [4], 0; in assay [5], 0; in [6], 0. For the same compound, the Motility stood at 139.1 in assay [7], 93.7 in [8] and 119 in assay [9].
For the compound `CCN(CC)CCNc1ncnc2c1[nH]c1ccc(Br)cc12`, the Toxicity in assay [1] is 4; in assay [2], 4; in assay [3] it was 4; in assay [4] it was 0; in [5], 0; in assay [6] it was 0. Moreover, the Motility result in [7] is “No effect”; in assay [8], 119; in assay [9], “No effect”.
As to `CN(C)CCCNCc1ccc(-c2ccc(F)c(Cl)c2)o1.Cl`, the Toxicity is 2 in [1]; 3 in [2]; 3 in assay [3]; 2 in [4]; 2 in assay [5]; 2 in assay [6]. Further, the Motility in assay [7] was 26.2; in [8], 62.2; in [9], 65.7.
Take `Cc1cc(C)c2nc(N3CCC(C(=O)NCCCN4CCC(N5CCCCC5)CC4)CC3)sc2c1`: the Toxicity stood at 4 in [1]; 4 in assay [2]; 4 in assay [3]; 0 in assay [4]; 0 in assay [5]; 0 in assay [6]. The Motility was found to be 97.4 in assay [7], 125.2 in assay [8] and 117 in assay [9].
`CCn1nc(-c2ccc(C(=O)OC)cc2)nc2c(=O)n(C)c(=O)nc1-2`: the Toxicity is given as 4 in [1]; 4 in [2]; 4 in assay [3]; 0 in [4]; 0 in assay [5]; 0 in assay [6]. The Motility in assay [7] is 99.1; in assay [8] it was 97; in assay [9] it was 78.5.
With `Oc1c(CN2CCN(c3ccccc3F)CC2)cc(Br)c2cccnc12`, the Toxicity in [1] came to 0; in assay [2] it was 4; in [3], 4; in [4], 3; in assay [5], 4; in [6], 4. Moreover, the Motility is on record as 231 in [7], 54.2 in [8] and 54.8 in assay [9].
`CC1CCN(Cc2ccc(NC(=O)c3cc4ccc5cccnc5c4[nH]3)cc2)CC1`: the Toxicity is recorded as 0 in [1]; 4 in [2]; 4 in [3]; 0 in assay [4]; 0 in [5]; 0 in assay [6]. For the same compound, the Motility was determined as 138 in assay [7], 97.2 in assay [8] and 110 in assay [9].
`O=C(Nc1cccc(C(F)(F)F)c1)c1cc(Cl)ccc1O`: the Toxicity in [1], in assay [2], in [3], in assay [4], in [5] and in assay [6] was 4 in each case. The Motility in assay [7] stood at 0.5; in [8] it was 0.4; in assay [9], 0.7.
With `Cc1ccc(CN2CCC(C(=O)Nc3ccc(-c4cc5ccccc5[nH]4)cc3)CC2)o1`, the Toxicity in assay [1] was determined as 0; in assay [2], 4; in assay [3] it was 4; in assay [4] it was 0; in [5], 0; in assay [6] it was 0. Further, the Motility in [7] is 122.1; in assay [8], 126.5; in assay [9], “No effect”.
As to `Clc1ccc2c(N3CCCC3)ccnc2c1`, the Toxicity is 1 in assay [1]; 0 in [2]; 2 in assay [3]; 0 in [4]; 0 in [5]; 0 in assay [6]. For the same compound, the Motility in assay [7] was 163; in assay [8] it was 131.1; in assay [9], “No effect”.
For `Cl.Clc1cc(Br)ccc1-c1ccc(CNCC2CCNCC2)o1`, the Toxicity in assay [1] is on record as 4; in assay [2], 4; in assay [3] it was 4; in assay [4] it was 2; in assay [5], 3; in assay [6], 2. Also, the Motility in [7] is recorded as 27.8; in assay [8], 52.5; in [9] it was “On sides, dark”.
`CCCCc1ccc(NS(=O)(=O)c2cc3c4c(c2)CCN4C(=O)CC3)cc1`: the Toxicity in assay [1] worked out at 2; in assay [2] it was 0; in assay [3], 0; in assay [4] it was 0; in [5], 0; in [6], 0. The Motility in assay [7] is reported as 109.4; in assay [8], 170.6; in assay [9], 80.4.
`Cl.N=c1n(CCN2CCCCC2)c2ccccc2n1CC(O)c1cccc(Br)c1` (stereo unspecified): the Toxicity was 2 in [1]; 2 in [2]; 4 in assay [3]; 0 in assay [4]; 0 in assay [5]; 0 in assay [6]. In addition, the Motility in assay [7] amounted to 92.2; in assay [8], 74.8; in assay [9], 114.5.
In the case of `Cc1cccc(-n2ncc3c(O)nc(-n4nc(C)cc4NC(=O)c4cc5ccccc5o4)nc32)c1`, the Toxicity in assay [1] is listed as 1; in [2] it was 1; in [3], 4; in [4] it was 0; in assay [5], 3; in assay [6], 4. The Motility is 6 in [7]; 1 in assay [8]; “Slow, on sides, dark, tegument damage” in [9].
Take `COc1ccc(-c2nc3cc(Cc4ccc5[nH]c(-c6ccc(OC)cc6)nc5c4)ccc3[nH]2)cc1`: the Toxicity amounted to 3 in [1]; 4 in assay [2]; 4 in assay [3]; 3 in assay [4]; 3 in [5]; 4 in assay [6]. The Motility is listed as 17.2 in [7], 24.7 in assay [8] and 12.4 in assay [9].
In the case of `CC(C)(C)CC(C)(C)NCC(O)COc1ccc2c(c1)CCC2.Cl` (stereo unspecified), the Toxicity in assay [1] is given as 2; in assay [2], 2; in [3], 4; in assay [4] it was 0; in [5] it was 1; in assay [6], 1. Further, the Motility is listed as 146 in [7], 153 in [8] and “overactive” in assay [9].
Turning to `COc1ccc2nc(C)cc(Nc3ccc(Cl)cc3)c2c1`, the Toxicity in [1] is given as 3; in assay [2], 4; in [3], 4; in [4] it was 2; in assay [5], 2; in assay [6], 3. Moreover, the Motility in [7] is reported as 75.2; in assay [8], 87.4; in assay [9], “Slow, on sides, dark”.
In the case of `O=C(O)C(=O)O.Oc1ccc(Br)cc1CN1CCN(Cc2cccc(F)c2)CC1`, the Toxicity in assay [1], in assay [2], in assay [3], in [4], in assay [5] and in assay [6] was 1 in each case. Moreover, the figures for the Motility in assay [7], in assay [8] and in [9] were 233, 202.5 and “Overactive”, respectively.
